The supplement of paper PMC11451515

Columns and labels:
Settings in all cases: 48 h
NOMO1 [1] = assay: cell viability relative to DMSO control; higher = less cytotoxic
Summary of the method: (§1)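 Viability is a per-plate percentage relative to DMSO wells, with cell-free wells as background. CellTiter-Glo One luminescence was read after 48 h at 37°C on 1536-well plates (5 μl) of NOMO1 or SEM (500 cells/well) or P12-Ichikawa (1000 cells/well) leukemia cells. The cells had been adapted for at least four passages in each medium and pin-dosed with library compounds in DMSO from 47 μM to 0.79 nM in 11 threefold steps.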

SEM cells [2] = assay: as above
Summary of the method: as §1

P12-Ichikawa [3] = assay: as above
Summary of the method: as §1

NOMO1 [4] = assay: AUC of viability dose-response curve (% viability x log10 dose units); higher = less sensitive
Summary of the method: (§2)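 Leukemia cells adapted to each medium were seeded in 1536-well plates (500 or 1000 cells/well). They were dosed with library compounds in DMSO at 11 threefold doses, 47 μM to 0.79 nM, for 48 h at 37°C. CellTiter-Glo One luminescence was normalised per plate to DMSO and cell-free wells. Area under the curve was integrated by trapezoidal rule over log10 doses on a four-parameter log-logistic fit; curves exceeding full viability were scaled and curves failing quality control removed.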

SEM cells [5] = assay: as above
Summary of the method: as §2

P12-Ichikawa [6] = assay: as above
Summary of the method: as §2

[7] = HPLM + 10% dialyzed FBS, 0.000781 µM
[8] = HPLM + 10% dialyzed FBS, 0.00234 µM
[9] = HPLM + 10% dialyzed FBS, 0.00702 µM
[10] = HPLM + 10% dialyzed FBS, 0.0211 µM
[11] = HPLM + 10% dialyzed FBS, 0.0632 µM
[12] = HPLM + 10% dialyzed FBS, 0.19 µM
[13] = HPLM + 10% dialyzed FBS, 0.569 µM
[14] = HPLM + 10% dialyzed FBS, 1.71 µM
[15] = HPLM + 10% dialyzed FBS, 5.12 µM
[16] = HPLM + 10% dialyzed FBS, 15.4 µM
[17] = HPLM + 10% dialyzed FBS, 46.1 µM
[18] = RPMI 5 mM glucose + 10% FBS, 0.000781 µM
[19] = RPMI 5 mM glucose + 10% FBS, 0.00234 µM
[20] = RPMI 5 mM glucose + 10% FBS, 0.00702 µM
[21] = RPMI 5 mM glucose + 10% FBS, 0.0211 µM
[22] = RPMI 5 mM glucose + 10% FBS, 0.0632 µM
[23] = RPMI 5 mM glucose + 10% FBS, 0.19 µM
[24] = RPMI 5 mM glucose + 10% FBS, 0.569 µM
[25] = RPMI 5 mM glucose + 10% FBS, 1.71 µM
[26] = RPMI 5 mM glucose + 10% FBS, 5.12 µM
[27] = RPMI 5 mM glucose + 10% FBS, 15.4 µM
[28] = RPMI 5 mM glucose + 10% FBS, 46.1 µM
[29] = RPMI 5 mM glucose + 10% dialyzed FBS, 0.000781 µM
[30] = RPMI 5 mM glucose + 10% dialyzed FBS, 0.00234 µM
[31] = RPMI 5 mM glucose + 10% dialyzed FBS, 0.00702 µM
[32] = RPMI 5 mM glucose + 10% dialyzed FBS, 0.0211 µM
[33] = RPMI 5 mM glucose + 10% dialyzed FBS, 0.0632 µM
[34] = RPMI 5 mM glucose + 10% dialyzed FBS, 0.19 µM
[35] = RPMI 5 mM glucose + 10% dialyzed FBS, 0.569 µM
[36] = RPMI 5 mM glucose + 10% dialyzed FBS, 1.71 µM
[37] = RPMI 5 mM glucose + 10% dialyzed FBS, 5.12 µM
[38] = RPMI 5 mM glucose + 10% dialyzed FBS, 15.4 µM
[39] = RPMI 5 mM glucose + 10% dialyzed FBS, 46.1 µM
[40] = RPMI 5 mM glucose + 10% dialyzed FBS

## NC12CC3CC(CC(C3)C1)C2
NOMO1 [1]; [7]
  cell viability: 108%
NOMO1 [1]; [8]
  cell viability: 104%
NOMO1 [1]; [9]
  cell viability: 102%
NOMO1 [1]; [10]
  cell viability: 103%
NOMO1 [1]; [11]
  cell viability: 138%
NOMO1 [1]; [12]
  cell viability: 121%
NOMO1 [1]; [13]
  cell viability: 111%
NOMO1 [1]; [14]
  cell viability: 106%
NOMO1 [1]; [15]
  cell viability: 101%
NOMO1 [1]; [16]
  cell viability: 96.4%
NOMO1 [1]; [17]
  cell viability: 88.5%
NOMO1 [1]; [18]
  cell viability: 102%
NOMO1 [1]; [19]
  cell viability: 102%
NOMO1 [1]; [20]
  cell viability: 102%
NOMO1 [1]; [21]
  cell viability: 101%
NOMO1 [1]; [22]
  cell viability: 97%
NOMO1 [1]; [23]
  cell viability: 108%
NOMO1 [1]; [24]
  cell viability: 98.2%
NOMO1 [1]; [25]
  cell viability: 94.5%
NOMO1 [1]; [26]
  cell viability: 99.1%
NOMO1 [1]; [27]
  cell viability: 98.5%
NOMO1 [1]; [28]
  cell viability: 104%
NOMO1 [1]; [29]
  cell viability: 95.3%
NOMO1 [1]; [30]
  cell viability: 95.8%
NOMO1 [1]; [31]
  cell viability: 108%
NOMO1 [1]; [32]
  cell viability: 97.8%
NOMO1 [1]; [33]
  cell viability: 93.1%
NOMO1 [1]; [34]
  cell viability: 105%
NOMO1 [1]; [35]
  cell viability: 103%
NOMO1 [1]; [36]
  cell viability: 96%
NOMO1 [1]; [37]
  cell viability: 88.3%
NOMO1 [1]; [38]
  cell viability: 97%
NOMO1 [1]; [39]
  cell viability: 81%
SEM cells [2]; [7]
  cell viability: 45.1%
SEM cells [2]; [8]
  cell viability: 106%
SEM cells [2]; [9]
  cell viability: 70.8%
SEM cells [2]; [10]
  cell viability: 106%
SEM cells [2]; [11]
  cell viability: 125%
SEM cells [2]; [12]
  cell viability: 114%
SEM cells [2]; [13]
  cell viability: 113%
SEM cells [2]; [14]
  cell viability: 124%
SEM cells [2]; [15]
  cell viability: 98.1%
SEM cells [2]; [16]
  cell viability: 123%
SEM cells [2]; [17]
  cell viability: 119%
SEM cells [2]; [18]
  cell viability: 42.3%
SEM cells [2]; [19]
  cell viability: 102%
SEM cells [2]; [20]
  cell viability: 70.6%
SEM cells [2]; [21]
  cell viability: 104%
SEM cells [2]; [22]
  cell viability: 109%
SEM cells [2]; [23]
  cell viability: 109%
SEM cells [2]; [24]
  cell viability: 102%
SEM cells [2]; [25]
  cell viability: 107%
SEM cells [2]; [26]
  cell viability: 89%
SEM cells [2]; [27]
  cell viability: 110%
SEM cells [2]; [28]
  cell viability: 104%
SEM cells [2]; [29]
  cell viability: 33.7%
SEM cells [2]; [30]
  cell viability: 96.5%
SEM cells [2]; [31]
  cell viability: 71.4%
SEM cells [2]; [32]
  cell viability: 108%
SEM cells [2]; [33]
  cell viability: 114%
SEM cells [2]; [34]
  cell viability: 115%
SEM cells [2]; [35]
  cell viability: 112%
SEM cells [2]; [36]
  cell viability: 122%
SEM cells [2]; [37]
  cell viability: 110%
SEM cells [2]; [38]
  cell viability: 131%
SEM cells [2]; [39]
  cell viability: 107%
P12-Ichikawa [3]; [7]
  cell viability: 109%
P12-Ichikawa [3]; [8]
  cell viability: 98.8%
P12-Ichikawa [3]; [9]
  cell viability: 103%
P12-Ichikawa [3]; [10]
  cell viability: 103%
P12-Ichikawa [3]; [11]
  cell viability: 105%
P12-Ichikawa [3]; [12]
  cell viability: 111%
P12-Ichikawa [3]; [13]
  cell viability: 108%
P12-Ichikawa [3]; [14]
  cell viability: 103%
P12-Ichikawa [3]; [15]
  cell viability: 117%
P12-Ichikawa [3]; [16]
  cell viability: 114%
P12-Ichikawa [3]; [17]
  cell viability: 105%
P12-Ichikawa [3]; [18]
  cell viability: 102%
P12-Ichikawa [3]; [19]
  cell viability: 119%
P12-Ichikawa [3]; [20]
  cell viability: 118%
P12-Ichikawa [3]; [21]
  cell viability: 120%
P12-Ichikawa [3]; [22]
  cell viability: 119%
P12-Ichikawa [3]; [23]
  cell viability: 123%
P12-Ichikawa [3]; [24]
  cell viability: 112%
P12-Ichikawa [3]; [25]
  cell viability: 113%
P12-Ichikawa [3]; [26]
  cell viability: 110%
P12-Ichikawa [3]; [27]
  cell viability: 109%
P12-Ichikawa [3]; [28]
  cell viability: 107%
P12-Ichikawa [3]; [29]
  cell viability: 104%
P12-Ichikawa [3]; [30]
  cell viability: 113%
P12-Ichikawa [3]; [31]
  cell viability: 109%
P12-Ichikawa [3]; [32]
  cell viability: 111%
P12-Ichikawa [3]; [33]
  cell viability: 115%
P12-Ichikawa [3]; [34]
  cell viability: 116%
P12-Ichikawa [3]; [35]
  cell viability: 115%
P12-Ichikawa [3]; [36]
  cell viability: 118%
P12-Ichikawa [3]; [37]
  cell viability: 115%
P12-Ichikawa [3]; [38]
  cell viability: 105%
P12-Ichikawa [3]; [39]
  cell viability: 103%
NOMO1 [4]; HPLM + 10% dialyzed FBS
  AUC of viability dose-response curve: 448
NOMO1 [4]; RPMI 5 mM glucose + 10% FBS
  AUC of viability dose-response curve: 470
NOMO1 [4]; [40]
  AUC of viability dose-response curve: 461
SEM cells [5]; HPLM + 10% dialyzed FBS
  AUC of viability dose-response curve: 435
SEM cells [5]; RPMI 5 mM glucose + 10% FBS
  AUC of viability dose-response curve: 401
SEM cells [5]; [40]
  AUC of viability dose-response curve: 371
P12-Ichikawa [6]; HPLM + 10% dialyzed FBS
  AUC of viability dose-response curve: 466
P12-Ichikawa [6]; RPMI 5 mM glucose + 10% FBS
  AUC of viability dose-response curve: 466
P12-Ichikawa [6]; [40]
  AUC of viability dose-response curve: 476

## CC1(C)S[C@H]2[C@H](NC(=O)[C@@H](N)C3=CC=C(O)C=C3)C(=O)[N@]2[C@H]1C(O)=O
NOMO1 [4]; HPLM + 10% dialyzed FBS
  AUC of viability dose-response curve: 383
NOMO1 [4]; RPMI 5 mM glucose + 10% FBS
  AUC of viability dose-response curve: 394
NOMO1 [4]; [40]
  AUC of viability dose-response curve: 393
SEM cells [5]; HPLM + 10% dialyzed FBS
  AUC of viability dose-response curve: 456
SEM cells [5]; RPMI 5 mM glucose + 10% FBS
  AUC of viability dose-response curve: 441
SEM cells [5]; [40]
  AUC of viability dose-response curve: 461
P12-Ichikawa [6]; HPLM + 10% dialyzed FBS
  AUC of viability dose-response curve: 394
P12-Ichikawa [6]; RPMI 5 mM glucose + 10% FBS
  AUC of viability dose-response curve: 394
P12-Ichikawa [6]; [40]
  AUC of viability dose-response curve: 383

## COC1=C(OC)C(=O)C(C/C=C(\C)CC/C=C(\C)CC/C=C(\C)CC/C=C(\C)CC/C=C(\C)CC/C=C(\C)CC/C=C(\C)CC/C=C(\C)CC/C=C(\C)CCC=C(C)C)=C(C)C1=O
SEM cells [2]; [7]
  cell viability: 104%
SEM cells [2]; [8]
  cell viability: 101%
SEM cells [2]; [9]
  cell viability: 97.5%
SEM cells [2]; [10]
  cell viability: 92.4%
SEM cells [2]; [11]
  cell viability: 129%
SEM cells [2]; [12]
  cell viability: 110%
SEM cells [2]; [13]
  cell viability: 60.3%
SEM cells [2]; [14]
  cell viability: 53.3%
SEM cells [2]; [15]
  cell viability: 138%
SEM cells [2]; [16]
  cell viability: 128%
SEM cells [2]; [17]
  cell viability: 124%
SEM cells [2]; [29]
  cell viability: 104%
SEM cells [2]; [30]
  cell viability: 129%
SEM cells [2]; [31]
  cell viability: 120%
SEM cells [2]; [32]
  cell viability: 106%
SEM cells [2]; [33]
  cell viability: 112%
SEM cells [2]; [34]
  cell viability: 124%
SEM cells [2]; [35]
  cell viability: 56.4%
SEM cells [2]; [36]
  cell viability: 43.4%
SEM cells [2]; [37]
  cell viability: 123%
SEM cells [2]; [38]
  cell viability: 126%
SEM cells [2]; [39]
  cell viability: 120%
NOMO1 [4]; HPLM + 10% dialyzed FBS
  AUC of viability dose-response curve: 461
NOMO1 [4]; RPMI 5 mM glucose + 10% FBS
  AUC of viability dose-response curve: 453
NOMO1 [4]; [40]
  AUC of viability dose-response curve: 466
SEM cells [5]; HPLM + 10% dialyzed FBS
  AUC of viability dose-response curve: 442
SEM cells [5]; RPMI 5 mM glucose + 10% FBS
  AUC of viability dose-response curve: 469
SEM cells [5]; [40]
  AUC of viability dose-response curve: 456
P12-Ichikawa [6]; HPLM + 10% dialyzed FBS
  AUC of viability dose-response curve: 453
P12-Ichikawa [6]; RPMI 5 mM glucose + 10% FBS
  AUC of viability dose-response curve: 435
P12-Ichikawa [6]; [40]
  AUC of viability dose-response curve: 461
